Measured values published in a melting point compilation (Tetko et al.; mined from patent text by program, amines drawn as free bases though some values may be those of a salt).

Compared with `O=C(O)c1cc(Br)cc2c1NCCS2(=O)=O`, `Cn1nnnc1CC(=O)c1ccc(Br)cc1N` is lower in melting point: 250 to 251 °C for the first, 159 to 160 °C for the second.

First: COC(=O)c1cc(C(=O)c2c(C)c(OC)c3ccc(O)cn23)ccc1N
Second: COC(=O)c1ccc(OC(Cc2ccccc2)C(=O)OC)cc1 (stereo unspecified)
The melting point of the first is higher: 216 °C for the first, 96 to 98 °C for the second.

Compared with `COc1cc2ncnc(N3CCC(C(C)CN4CCCS4(=O)=O)CC3)c2cc1OC` (stereo unspecified), `CCN(CC)CCCCC1CCCCN1CCNC(=O)N1c2ccccc2C(=O)Nc2cccnc21` (stereo unspecified) is higher in melting point: 129 to 131 °C for the first, 155 to 157 °C for the second.

First: CC(C)(C)c1cc(C(=O)c2ccco2)cc2c1OCC2(C)C
Second: Cc1c(C)n(Cc2ccccc2)c2ncnc(Cl)c12
The melting point of the first is lower: 103 to 104 °C for the first, 115 to 116 °C for the second.

First: C=C1CC(C)(COc2ccc3ccc(=O)oc3c2)OC1=O (stereo unspecified)
Second: COc1cc(CCl)ccc1OCc1nc(-c2cccc([N+](=O)[O-])c2)oc1C
The melting point of the first is lower: 123 to 124 °C for the first, 166 to 168 °C for the second.

First: CC(CNC(=O)Cc1ccccc1)Oc1ccccc1 (stereo unspecified)
Second: CC(C)(Cc1cccc2ccccc12)NC=O
The melting point of the first is higher: 94 to 96 °C for the first, 79 to 80 °C for the second.

`CSc1nccn1-c1cccc(C2=Nc3cc(O)c(-c4ccccc4F)cc3NC(=O)C2)c1` and `COc1ccccc1-c1ccc2cnc(Nc3ccc4c(c3)NC(=O)CC4)nn12` cannot be ordered by melting point: greater than 250 °C for the first, 310 to 313 °C for the second.

Compared with `CC(=O)ON=c1c2nccc3cccc(c32)n2cccc12`, `COc1ccc2[nH]cc(/C=C/C(=O)c3ccncc3)c2c1` is higher in melting point: 177 to 179 °C for the first, 236 to 239 °C for the second.

First: Nc1ccc2oc([N+](=O)[O-])c(-c3ccccc3)c2c1
Second: CS(=O)(=O)c1ccc(-c2c(-c3ccccc3F)[nH]c3ccc(Cl)cc23)cc1
The melting point of the first is lower: 125 to 127 °C for the first, 246 to 248 °C for the second.

Compared with `Cc1noc2cc(N3CCOCC3)ccc12`, `CCCc1nc2c(N)nc3ccccc3c2n1CC1(O)CCCCC1` is higher in melting point: 138 to 140 °C for the first, 250 to 252 °C for the second.

Compared with `COCCOC(=O)c1c(S(C)(=O)=O)ccc(C(=O)O)c1C`, `C=CCn1c(=O)c(C(=O)OCC)c(N)c2ccccc21` is higher in melting point: 90 to 93 °C for the first, 132 to 134 °C for the second.

First: COc1nc(C)nc(NNC(N)=NS(=O)(=O)c2ccccc2OC(F)(F)F)n1
Second: Cc1ccc(NCC(=O)Nc2ccc(S(N)(=O)=O)cc2Cl)cc1
The melting point of the first is higher: 245 °C for the first, 215 to 216 °C for the second.

First: CCN(C(=O)NC)c1nnc(C(C)(C)C)s1
Second: CC(C)(NC=O)C(=O)O
The melting point of the first is lower: 112 °C for the first, 130 to 131 °C for the second.

First: CCOC(=O)N=C(OCC)c1ccccc1Cl
Second: CCCCOC(=O)NC1(c2ccccc2Cl)CCCCC1=O (stereo unspecified)
The melting point of the first is lower: 65 to 66 °C for the first, 130 to 132 °C for the second.

First: CC(C)(C)OC(=O)N1CCCC(C2=C(C#N)C(c3cccc(C#N)c3Br)c3c[nH]nc3N2)C1 (stereo unspecified)
Second: CC(C)(C)c1ccc(C(=O)Nc2cn3cc(-c4ncc[nH]4)ccc3n2)cc1
The melting point of the first is lower: 238 °C for the first, 300 to 301 °C for the second.

Compared with `CCOCOc1cc(F)ccc1-c1cc(-c2cccc([N+](=O)[O-])c2)c(C#N)c(NC(=O)c2cccs2)n1`, `Cn1cc(C2=C(c3c[nH]c4cc([N+](=O)[O-])ccc34)C(=O)NC2=O)c2ccccc21` is higher in melting point: 166 to 167 °C for the first, greater than 260 °C for the second.

First: CCCN1C(=O)N2CC(Cc3ccccc3)N=C2c2[nH]c(C(C)OCC)nc21 (stereo unspecified)
Second: CCCc1nc2c(N)nc3ccccc3c2n1CCCCCC(C)=O
The melting point of the first is higher: 165 to 170 °C for the first, 161 to 163 °C for the second.

First: Clc1cc(Br)c2oc3c(Cl)c(Br)c(Cl)c(Br)c3c2c1
Second: O=C(O)CCSC1c2ccccc2COc2ccc(OCc3ccc4cc(Cl)ccc4n3)cc21 (stereo unspecified)
The melting point of the first is higher: 220 to 222 °C for the first, 178 to 180 °C for the second.

First: CN1CCCCc2cc(Nc3ncc(Cl)c(Nc4ccccc4NS(C)(=O)=O)n3)ccc21
Second: CS(=O)(=O)c1ccc(-c2cnn(CC(F)(F)F)c(=O)c2Sc2ccc(F)c(Cl)c2)cc1
The melting point of the first is higher: 170 to 172 °C for the first, 142 to 145 °C for the second.

Compared with `COc1ccc(CCCC2CCNCC2)cc1`, `CCC1(c2ccc3cc(OC)ccc3c2)OC(C(=O)OC)C(C(=O)OC)O1` (stereo unspecified) is higher in melting point: 65 to 70 °C for the first, 72 to 73 °C for the second.

Molecule `O=C(O)Cc1c[nH]c2cc(C(F)(F)F)nn2c1=O` has a melting point of 320 to 324 °C.
